Laboratory results published in PubChem BioAssay (NCI).
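Protocol summary: plate cells (96-well), add compound at 5 concentrations, incubate 48 h, interpolate endpoints linearly. At the TGI there is no net growth.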

Assays:
Test in all cases: NCI anticancer screen, dose series, 48 h
[1] = test system: LOX IMVI melanoma
[2] = test system: RXF 393 renal
[3] = test system: NCI-H226 lung
[4] = test system: SNB-75 CNS
[5] = test system: SNB-19 CNS
[6] = test system: OVCAR-4 ovarian
[7] = test system: LXFL 529 NSCLC
[8] = test system: DMS 114 small cell lung
[9] = test system: M19-MEL melanoma
[10] = test system: OVCAR-8 ovarian
[11] = test system: SF-295 CNS
[12] = test system: UO-31 renal
[13] = test system: COLO 205 colon
[14] = test system: SN12C renal
[15] = test system: HOP-62 NSCLC
[16] = test system: UACC-62 melanoma
[17] = test system: MOLT-4 leukemia
[18] = test system: TK-10 renal
[19] = test system: DMS 273 small cell lung
[20] = test system: HCC-2998 colon
[21] = test system: NCI-H23 lung
[22] = test system: HL-60(TB) leukemia
[23] = test system: KM12 colon
[24] = test system: K-562 leukemia
[25] = test system: CCRF-CEM leukemia
[26] = test system: SK-OV-3 ovarian
[27] = test system: UACC-257 melanoma
[28] = test system: CAKI-1 renal
[29] = test system: A549 NSCLC
[30] = test system: SW-620 colon
[31] = test system: RXF-631 renal
[32] = test system: DLD-1 colon
[33] = test system: KM20L2 colon
[34] = test system: A498 renal
[35] = test system: SK-MEL-5 melanoma
[36] = test system: XF 498 CNS
[37] = test system: SNB-78 CNS
[38] = test system: HCT-15 colon
[39] = test system: HOP-18 NSCLC
[40] = test system: IGROV1 ovarian
[41] = test system: OVCAR-5 ovarian
[42] = test system: HT29 colon
[43] = test system: EKVX NSCLC
[44] = test system: RPMI-8226 leukemia
[45] = test system: ACHN renal
[46] = test system: NCI-H460 lung
[47] = test system: SF-539 CNS
[48] = test system: SK-MEL-2 melanoma
[49] = test system: M14 melanoma
[50] = test system: MALME-3M melanoma
[51] = test system: HCT-116 colon
[52] = test system: U251 CNS
[53] = test system: OVCAR-3 ovarian
[54] = test system: 786-0 renal
[55] = test system: HOP-92 NSCLC
[56] = test system: SK-MEL-28 melanoma
[57] = test system: SF-268 CNS
[58] = test system: MDA-MB-231 breast
[59] = test system: NCI-H522 lung
[60] = test system: DU-145 prostate
[61] = test system: PC-3 prostate
[62] = test system: BT-549 breast
[63] = test system: MDA-N
[64] = test system: T-47D breast
[65] = test system: MDA-MB-435
[66] = test system: MCF7 breast
[67] = test system: SR leukemia
[68] = test system: HS 578T breast

CSc1nc(NC2OCC(OC(C)=O)C(OC(C)=O)C2OC(C)=O)c(N=C(C)C(C)=O)c(=O)n1C (stereo not given)
TGI [1]: > 100 µM | TGI [2]: > 100 µM | TGI [3]: > 100 µM | TGI [4]: > 100 µM | TGI [5]: > 100 µM | TGI [6]: > 100 µM | TGI [7]: > 100 µM | TGI [8]: > 100 µM | TGI [9]: > 100 µM | TGI [10]: > 100 µM | TGI [11]: > 100 µM | TGI [12]: > 100 µM | TGI [13]: > 100 µM | TGI [14]: > 100 µM | TGI [15]: > 100 µM | TGI [16]: > 100 µM | TGI [17]: > 100 µM | TGI [18]: > 100 µM | TGI [19]: > 100 µM | TGI [20]: > 100 µM | TGI [21]: > 100 µM | TGI [22]: > 100 µM | TGI [23]: > 100 µM | TGI [24]: > 100 µM | TGI [25]: > 100 µM | TGI [26]: > 100 µM | TGI [27]: > 100 µM | TGI [28]: > 100 µM | TGI [29]: > 100 µM | TGI [30]: > 100 µM | TGI [31]: > 100 µM | TGI [32]: > 100 µM | TGI [33]: > 100 µM | TGI [34]: > 100 µM | TGI [35]: > 100 µM | TGI [36]: > 100 µM | TGI [37]: > 100 µM | TGI [38]: > 100 µM | TGI [39]: > 100 µM | TGI [40]: > 100 µM | TGI [41]: > 100 µM | TGI [42]: > 100 µM | TGI [43]: > 100 µM | TGI [44]: > 100 µM | TGI [45]: > 100 µM | TGI [46]: > 100 µM | TGI [47]: > 100 µM | TGI [48]: > 100 µM | TGI [49]: > 100 µM | TGI [50]: > 100 µM | TGI [51]: > 100 µM | TGI [52]: > 100 µM | TGI [53]: > 100 µM | TGI [54]: > 100 µM | TGI [55]: > 100 µM

N#CC(/C(=N\NC(=O)c1ccncc1)C(=O)Nc1ccc([N+](=O)[O-])cc1[N+](=O)[O-])c1nc(-c2ccc(Br)cc2)cs1 (stereo not given)
TGI [1]: > 100 µM | TGI [4]: > 100 µM | TGI [5]: > 100 µM | TGI [6]: > 100 µM | TGI [7]: > 100 µM | TGI [8]: > 100 µM | TGI [9]: > 100 µM | TGI [10]: > 100 µM | TGI [11]: > 100 µM | TGI [12]: > 100 µM | TGI [13]: > 100 µM | TGI [15]: > 100 µM | TGI [16]: > 100 µM | TGI [17]: > 100 µM | TGI [18]: > 100 µM | TGI [20]: > 100 µM | TGI [22]: > 100 µM | TGI [23]: > 100 µM | TGI [24]: > 100 µM | TGI [25]: > 100 µM | TGI [26]: > 100 µM | TGI [27]: > 100 µM | TGI [28]: > 100 µM | TGI [56]: > 100 µM | TGI [29]: > 100 µM | TGI [30]: > 100 µM | TGI [31]: > 100 µM | TGI [32]: > 100 µM | TGI [33]: > 100 µM | TGI [34]: > 100 µM | TGI [35]: > 100 µM | TGI [37]: > 100 µM | TGI [38]: > 100 µM | TGI [40]: > 100 µM | TGI [41]: > 100 µM | TGI [43]: > 100 µM | TGI [44]: > 100 µM | TGI [45]: > 100 µM | TGI [46]: > 100 µM | TGI [47]: > 100 µM | TGI [48]: > 100 µM | TGI [49]: > 100 µM | TGI [50]: > 100 µM | TGI [51]: > 100 µM | TGI [52]: > 100 µM | TGI [57]: > 100 µM | TGI [53]: > 100 µM | TGI [54]: > 100 µM

CC1=C(C(=O)Nc2ccccc2C)C(c2ccc(C3C(C(=O)Nc4ccccc4C)=C(C)NC(C)=C3C(=O)Nc3ccccc3C)cc2)C(C(=O)Nc2ccccc2C)=C(C)N1
TGI [1]: 3.63 µM | TGI [2]: 17.6 µM | TGI [3]: 28.7 µM | TGI [58]: 15.2 µM | TGI [59]: 3.72 µM | TGI [4]: 30.9 µM | TGI [5]: 29.4 µM | TGI [6]: 22.1 µM | TGI [7]: 10.5 µM | TGI [8]: 14 µM | TGI [9]: 12.3 µM | TGI [10]: 8.57 µM | TGI [11]: 17.1 µM | TGI [12]: 26.7 µM | TGI [13]: 14.5 µM | TGI [14]: 2.85 µM | TGI [15]: 42.1 µM | TGI [16]: 4.65 µM | TGI [17]: 9.28 µM | TGI [18]: 24.2 µM | TGI [19]: 11.4 µM | TGI [60]: 32.1 µM | TGI [20]: 9.31 µM | TGI [21]: 9.6 µM | TGI [22]: 6.15 µM | TGI [23]: 4.75 µM | TGI [24]: 25.4 µM | TGI [61]: 16.1 µM | TGI [25]: 7.82 µM | TGI [62]: 11.5 µM | TGI [26]: 28.8 µM | TGI [27]: 9.84 µM | TGI [28]: 22.7 µM | TGI [56]: 4.26 µM | TGI [29]: 27.8 µM | TGI [30]: 6.3 µM | TGI [31]: 28.4 µM | TGI [63]: 19.9 µM | TGI [32]: 5.66 µM | TGI [64]: 20.5 µM | TGI [33]: 12.9 µM | TGI [34]: 29 µM | TGI [35]: 24.6 µM | TGI [65]: 14.3 µM | TGI [36]: 35.6 µM | TGI [37]: 16.7 µM | TGI [38]: 23.5 µM | TGI [40]: 9.5 µM | TGI [66]: 19.5 µM | TGI [41]: 31.8 µM | TGI [42]: 4.62 µM | TGI [43]: 19.2 µM | TGI [44]: 7.85 µM | TGI [45]: 16 µM | TGI [46]: 24.9 µM | TGI [47]: 8.57 µM | TGI [48]: 31.6 µM | TGI [49]: 8.23 µM | TGI [50]: 6.13 µM | TGI [51]: 7.17 µM | TGI [52]: 7.34 µM | TGI [57]: 7.18 µM | TGI [53]: 18.5 µM | TGI [54]: 17.3 µM | TGI [55]: 20.6 µM | TGI [67]: 8.56 µM | TGI [68]: 55.3 µM
